Assay results: US9446039B2, “Aminoheteroaryl compounds as MTH1 inhibitors” (CEMM—FORSCHUNGSZENTRUM FÜR MOLEKULARE MEDIZIN GMBH, priority 2012, dated 2016)

Experiments:
Assay type in all cases: binding
[1] = biological target: SW480 colon carcinoma cells lysate proteins (Homo sapiens, UniProt Q9BQE3); conditions: PreyGene TUBA1C; SW480 cells
[2] = biological target: T1, SW480 colon carcinoma cells lysate proteins (Homo sapiens, UniProt Q7RTS7); conditions: PreyGene KRT74; SW480 cells
T1 sequence (Q7RTS7 1-529): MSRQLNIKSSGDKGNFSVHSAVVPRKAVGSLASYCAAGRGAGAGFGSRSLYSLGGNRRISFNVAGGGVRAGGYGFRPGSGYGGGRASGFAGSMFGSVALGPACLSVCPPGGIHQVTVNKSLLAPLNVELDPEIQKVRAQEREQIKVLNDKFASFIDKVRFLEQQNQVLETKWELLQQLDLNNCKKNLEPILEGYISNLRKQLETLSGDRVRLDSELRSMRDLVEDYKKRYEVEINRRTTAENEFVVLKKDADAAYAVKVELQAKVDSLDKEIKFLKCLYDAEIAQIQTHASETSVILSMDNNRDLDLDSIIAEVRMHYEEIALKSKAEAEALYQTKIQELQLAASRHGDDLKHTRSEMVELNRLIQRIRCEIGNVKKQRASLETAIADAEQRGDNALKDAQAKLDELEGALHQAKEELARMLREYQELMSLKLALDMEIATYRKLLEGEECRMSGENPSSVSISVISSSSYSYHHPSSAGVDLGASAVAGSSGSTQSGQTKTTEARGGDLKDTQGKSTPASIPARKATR

[3] = biological target: T2, SW480 colon carcinoma cells lysate proteins (Homo sapiens, UniProt Q8NC51); conditions: PreyGene SERBP1; SW480 cells
T2 sequence (Q8NC51 1-408): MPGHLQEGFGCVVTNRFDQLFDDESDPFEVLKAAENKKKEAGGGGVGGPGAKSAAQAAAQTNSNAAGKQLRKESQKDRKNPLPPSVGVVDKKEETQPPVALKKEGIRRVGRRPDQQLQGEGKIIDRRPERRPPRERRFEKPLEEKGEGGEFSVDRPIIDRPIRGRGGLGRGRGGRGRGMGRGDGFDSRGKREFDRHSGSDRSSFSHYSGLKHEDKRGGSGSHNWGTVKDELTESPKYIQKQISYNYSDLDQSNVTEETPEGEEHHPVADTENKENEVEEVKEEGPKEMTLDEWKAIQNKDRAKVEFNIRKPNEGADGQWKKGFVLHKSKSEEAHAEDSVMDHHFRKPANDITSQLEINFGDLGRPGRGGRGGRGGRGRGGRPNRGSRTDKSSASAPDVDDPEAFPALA

[4] = biological target: T3, SW480 colon carcinoma cells lysate proteins (Homo sapiens, UniProt Q9H9Z2); conditions: PreyGene LIN28A
T3 sequence (Q9H9Z2 1-209): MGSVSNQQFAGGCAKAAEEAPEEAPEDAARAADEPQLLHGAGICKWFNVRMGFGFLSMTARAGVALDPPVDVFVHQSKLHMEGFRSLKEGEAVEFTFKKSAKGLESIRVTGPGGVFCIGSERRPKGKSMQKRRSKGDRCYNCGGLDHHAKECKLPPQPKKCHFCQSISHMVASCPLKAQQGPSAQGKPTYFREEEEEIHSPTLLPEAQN

[5] = biological target: SW480 colon carcinoma cells lysate proteins (Homo sapiens, UniProt P61204); conditions: PreyGene ARF3
[6] = biological target: SW480 colon carcinoma cells lysate proteins (Homo sapiens, UniProt P26447); conditions: PreyGene S100A4
SW480 colon carcinoma cells lysate proteins (Homo sapiens, UniProt P26447), sequence (P26447 whole entry): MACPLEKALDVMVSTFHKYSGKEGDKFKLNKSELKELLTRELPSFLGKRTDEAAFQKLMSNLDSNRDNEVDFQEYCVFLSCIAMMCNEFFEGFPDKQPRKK

SW480 colon carcinoma cells lysate proteins (Homo sapiens, UniProt Q9BQE3), sequence (Q9BQE3 whole entry): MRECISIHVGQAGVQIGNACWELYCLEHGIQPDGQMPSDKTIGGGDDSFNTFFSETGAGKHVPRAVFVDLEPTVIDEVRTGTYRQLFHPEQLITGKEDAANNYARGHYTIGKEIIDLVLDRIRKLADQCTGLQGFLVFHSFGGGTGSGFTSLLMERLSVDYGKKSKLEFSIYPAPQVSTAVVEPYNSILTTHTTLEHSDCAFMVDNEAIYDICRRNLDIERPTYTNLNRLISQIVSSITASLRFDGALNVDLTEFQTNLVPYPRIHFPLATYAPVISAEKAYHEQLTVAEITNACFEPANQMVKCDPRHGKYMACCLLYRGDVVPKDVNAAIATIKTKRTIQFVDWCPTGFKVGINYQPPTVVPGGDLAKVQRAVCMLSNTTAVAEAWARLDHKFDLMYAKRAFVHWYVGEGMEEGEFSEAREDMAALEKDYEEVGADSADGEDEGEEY
SW480 colon carcinoma cells lysate proteins (Homo sapiens, UniProt P61204), sequence (P61204 whole entry): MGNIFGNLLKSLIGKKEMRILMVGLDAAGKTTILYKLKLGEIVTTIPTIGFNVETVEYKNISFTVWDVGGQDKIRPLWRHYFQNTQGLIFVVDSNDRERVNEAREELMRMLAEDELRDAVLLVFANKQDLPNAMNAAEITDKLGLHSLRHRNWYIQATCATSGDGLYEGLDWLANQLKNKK

In the case of `C[C@H](Oc1cc(-c2cnn(C3CCNCC3)c2)cnc1N)c1c(Cl)ccc(F)c1Cl` [(5)-crizotinib], the AvgP [1] is reported as 0, the “SC.Exp. 1-1” value [1] is reported as 1 and the “SC.Exp. 1-2” value [1] is reported as 1. The “SC.Exp. 2-1” value [1] was 0, the “SC.Exp. 2-2” value [1] was 1 and the “SC.Exp. Sum” value [1] was 3. For the same molecule, the AvgP [2] was 0, the “SC.Exp. 1-1” value [2] was 1 and the “SC.Exp. 1-2” value [2] was 1. For the same molecule, the “SC.Exp. 2-1” value [2] was 0, the “SC.Exp. 2-2” value [2] was 0 and the “SC.Exp. Sum” value [2] was 2. The AvgP [3] was 0, the “SC.Exp. 1-1” value [3] was 8 and the “SC.Exp. 1-2” value [3] was 10. The “SC.Exp. 2-1” value [3] was 5, the “SC.Exp. 2-2” value [3] was 6 and the “SC.Exp. Sum” value [3] was 29. For the same molecule, the AvgP [4] was 0.3021, the “SC.Exp. 1-1” value [4] was 2 and the “SC.Exp. 1-2” value [4] was 2. For the same molecule, the “SC.Exp. 2-1” value [4] was 2, the “SC.Exp. 2-2” value [4] was 0 and the “Sum (SC.Exp.)” value [4] was 6. For the same molecule, the AvgP [5] was 0.1881, the “SC.Exp. 1-1” value [5] was 2 and the “SC.Exp. 1-2” value [5] was 0. The “SC.Exp. 2-1” value [5] was 0, the “SC.Exp. 2-2” value [5] was 0 and the “Sum (SC.Exp.)” value [5] was 2. The AvgP [6] was 0.3894, the “SC.Exp. 1-1” value [6] was 3 and the “SC.Exp. 1-2” value [6] was 2. For the same molecule, the “SC.Exp. 2-1” value [6] was 0, the “SC.Exp. 2-2” value [6] was 0 and the “Sum (SC.Exp.)” value [6] was 5.
